Assay results reported in patent US9926297B2, “Bicyclic AZA compounds as muscarinic M1 receptor and/or M4 receptor agonists” (Heptares Therapeutics Limited, priority 2014, dated 2018).

Legend:
[1] = molecular target: T1, human muscarinic M1 receptor (Homo sapiens, UniProt P11229); experiment: Alphascreen Surefire phospho-ERK1/2 functional assay, M1; assay type: cell-based; details: for EC50: CHO cells stably expressing human M1, phospho-ERK1/2, * = variable results, read-out: pEC50 M1 (converted); for Emax: CHO, read-out: % Emax cf. ACh, M1, CHO cells stably expressing human M1, relative to ACh
T1 sequence (P11229 1-460): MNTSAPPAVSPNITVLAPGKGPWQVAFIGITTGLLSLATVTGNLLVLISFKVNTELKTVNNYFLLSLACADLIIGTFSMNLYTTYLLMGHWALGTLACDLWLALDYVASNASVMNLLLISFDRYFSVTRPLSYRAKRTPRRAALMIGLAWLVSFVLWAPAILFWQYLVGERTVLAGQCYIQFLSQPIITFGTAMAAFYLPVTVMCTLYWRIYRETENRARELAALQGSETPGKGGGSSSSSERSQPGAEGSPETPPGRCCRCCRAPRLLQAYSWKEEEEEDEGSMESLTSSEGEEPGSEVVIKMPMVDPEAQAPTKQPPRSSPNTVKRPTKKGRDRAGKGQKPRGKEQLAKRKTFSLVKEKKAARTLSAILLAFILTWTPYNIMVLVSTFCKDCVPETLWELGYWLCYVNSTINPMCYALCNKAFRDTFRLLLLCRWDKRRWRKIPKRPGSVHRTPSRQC

[2] = molecular target: T2, human muscarinic M4 receptor (Homo sapiens, UniProt P08173); experiment: Alphascreen Surefire phospho-ERK1/2 functional assay, M4; assay type: cell-based; details: for EC50: CHO cells stably expressing human M4, phospho-ERK1/2, * = variable results, read-out: pEC50 M4 (converted); for Emax: CHO, read-out: % Emax cf. ACh, M4, CHO cells stably expressing human M4, relative to ACh
T2 construct: expressed in transfected cells
T2 sequence (P08173 1-479): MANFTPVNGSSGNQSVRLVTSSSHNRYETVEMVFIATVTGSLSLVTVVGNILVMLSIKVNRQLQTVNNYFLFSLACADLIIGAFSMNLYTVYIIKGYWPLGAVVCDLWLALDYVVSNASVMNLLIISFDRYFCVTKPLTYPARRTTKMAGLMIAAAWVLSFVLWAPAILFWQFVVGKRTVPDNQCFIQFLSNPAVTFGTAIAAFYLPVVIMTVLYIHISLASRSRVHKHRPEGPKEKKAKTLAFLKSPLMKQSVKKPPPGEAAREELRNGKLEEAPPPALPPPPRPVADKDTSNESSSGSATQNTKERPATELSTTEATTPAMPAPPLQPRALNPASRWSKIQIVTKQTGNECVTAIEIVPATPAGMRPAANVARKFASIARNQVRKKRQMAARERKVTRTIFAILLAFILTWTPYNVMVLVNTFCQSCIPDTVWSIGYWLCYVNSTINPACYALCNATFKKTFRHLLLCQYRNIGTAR

[3] = molecular target: T3, human muscarinic M2 receptor (Homo sapiens, UniProt P08172); experiment: Alphascreen Surefire phospho-ERK1/2 functional assay, M2; details: for Emax: CHO, read-out: % Emax cf. ACh, M2, CHO cells stably expressing human M2, relative to ACh
T3 sequence (P08172 1-466): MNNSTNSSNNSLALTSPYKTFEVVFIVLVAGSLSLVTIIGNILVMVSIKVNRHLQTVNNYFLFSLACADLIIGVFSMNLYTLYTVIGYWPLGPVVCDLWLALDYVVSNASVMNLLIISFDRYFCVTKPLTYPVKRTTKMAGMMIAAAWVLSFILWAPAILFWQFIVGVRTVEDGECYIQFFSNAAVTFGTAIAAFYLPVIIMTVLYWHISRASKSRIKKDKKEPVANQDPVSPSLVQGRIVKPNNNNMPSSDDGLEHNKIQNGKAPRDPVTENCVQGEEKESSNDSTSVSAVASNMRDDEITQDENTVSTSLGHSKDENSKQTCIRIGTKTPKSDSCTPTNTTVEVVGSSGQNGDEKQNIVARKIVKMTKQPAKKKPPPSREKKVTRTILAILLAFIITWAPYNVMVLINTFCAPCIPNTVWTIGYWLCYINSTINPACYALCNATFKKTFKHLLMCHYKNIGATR

[4] = molecular target: human muscarinic M3 receptor (Homo sapiens, UniProt P20309); experiment: Alphascreen Surefire phospho-ERK1/2 functional assay, M3; details: for Emax: CHO, read-out: % Emax cf. ACh, M3, CHO cells stably expressing human M3; for EC50: pEC50 M3, CHO cells stably expressing human M3, phospho-ERK1/2, * = variable results
human muscarinic M3 receptor, sequence (P20309 whole entry): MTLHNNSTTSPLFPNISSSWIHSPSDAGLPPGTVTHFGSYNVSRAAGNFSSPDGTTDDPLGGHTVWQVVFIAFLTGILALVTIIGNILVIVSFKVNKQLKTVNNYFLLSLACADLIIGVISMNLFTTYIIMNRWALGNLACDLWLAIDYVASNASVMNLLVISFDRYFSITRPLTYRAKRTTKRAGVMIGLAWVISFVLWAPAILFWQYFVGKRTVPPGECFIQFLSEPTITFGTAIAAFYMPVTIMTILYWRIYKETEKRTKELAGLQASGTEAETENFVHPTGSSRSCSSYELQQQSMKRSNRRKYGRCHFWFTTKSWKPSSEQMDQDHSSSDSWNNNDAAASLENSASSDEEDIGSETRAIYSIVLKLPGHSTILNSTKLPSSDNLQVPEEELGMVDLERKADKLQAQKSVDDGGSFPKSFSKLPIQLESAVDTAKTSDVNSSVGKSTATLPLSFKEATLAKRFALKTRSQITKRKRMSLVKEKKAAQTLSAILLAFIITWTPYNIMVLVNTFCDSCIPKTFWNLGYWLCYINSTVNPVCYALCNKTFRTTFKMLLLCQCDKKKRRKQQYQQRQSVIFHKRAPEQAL

Row | EC50 [1] [nM] | Emax [1] [%] | EC50 [2] [nM] | Emax [2] [%] | EC50 [3] [nM] | Emax [3] [%] | Emax ([4]; relative to ACh) [%] | EC50 [4] [nM] | % Emax cf. ACh, M3 ([4]; CHO cells stably expressing human M3, relative to ACh) [%] | SMILES
1 | 126 | 98 | 20 | 107 | > 20000 | 16 | 18 | > 20000 | – | CCOC(=O)N1CCC2(CC(N3CCC([C@@H]4CCCN4c4ccncc4)CC3)C2)C1 (single isomer, unassigned) [2-80 Isomer 2]
2 | 251 | 36 | 20 | 82 | > 20000 | – | – | > 20000 | – | CCOC(=O)N1CCC2(CC(N3CCC(N4CCC[C@@H]4C(=O)OC)CC3)C2)C1 (single isomer, unassigned) [2-84 Isomer 2]
3 | 398 | 46 | 15.8 | 100 | > 20000 | 54 | 3 | > 20000 | – | CCOC(=O)N1CCC2(CC(N3CCC(N4CC(F)(F)C[C@@H]4C(=O)OC)CC3)C2)C1 (single isomer, unassigned) [2-87 Isomer 2]
4 | 6310 | 37 | 200 | 102 | > 20000 | 68 | 8 | > 20000 | – | CCOC(=O)N1CCC2(CC(N3CCC(N4CC(F)(F)C[C@@H]4C(=O)N(C)C)CC3)C2)C1 (single isomer, unassigned) [2-89 Isomer 2]
5 | 158 | 54 | 12.6 | 53 | > 20000 | 4 | 1 | > 20000 | – | CCOC(=O)N1CCC2(CC(N3CCC(N4CC(F)(F)C[C@@H]4C(N)=O)CC3)C2)C1 (single isomer, unassigned) [2-90 Isomer 2]
6 | > 20000 | 2 | 126 | 63 | > 20000 | 1 | 5 | > 20000 | – | CCOC(=O)N1CCC2(CC(N3CCC(N4CCCC45CCOC5=O)CC3)C2)C1 (single isomer, unassigned) [2-96 Isomer 2, ethyl 2-[4-(6-oxo-7-oxa-1-azaspiro[4.4]non-1-yl)piperidin-1-yl]-6-azaspiro[3.4]octane-6-carboxylate]
7 | 200 | 26 | 20 | 100 | > 20000 | 4 | 3 | > 20000 | – | CCOC(=O)N1CCC2(CC(N3CCC(N4CCC[C@@H]4C(F)F)CC3)C2)C1 (single isomer, unassigned) [2-103 Isomer 2]
8 | 79.4 | 102 | 15.8 | 111 | > 20000 | 8 | 8 | > 20000 | – | CCOC(=O)N1CCC2(CC(N3CCC(N4CCC[C@@H]4C(F)(F)F)CC3)C2)C1 (single isomer, unassigned) [2-104 Isomer 2]
9 | 63.1 | – | 6.31 | – | > 20000 | – | 48 | > 20000 | – | CCOC(=O)N1CCC2(CC(N3CCC(N4CC(F)(F)C[C@@H]4CO)CC3)C2)C1 (single isomer, unassigned) [2-107 Isomer 2]

The remaining lines, values behind:

Row | SMILES | EC50 [1] [nM] | Emax [1] [%] | EC50 [2] [nM] | Emax [2] [%] | EC50 [3] [nM] | Emax [3] [%] | Emax ([4]; relative to ACh) [%] | EC50 [4] [nM] | % Emax cf. ACh, M3 ([4]; CHO cells stably expressing human M3, relative to ACh) [%]
10 | CCOC(=O)N1CCC2(CC(N3CCC([C@@H]4CCCN4c4nccs4)CC3)C2)C1 (single isomer, unassigned) [2-82 Isomer 2] | 501 | 52 | 20 | 70 | > 20000 | 1 | 0 | > 20000 | –
11 | CCOC(=O)N1CCC2(CC(N3CCC(N4CC(F)(F)C[C@@H]4C(=O)NC)CC3)C2)C1 (single isomer, unassigned) [2-88 Isomer 2] | 316 | 25 | 39.8 | 44 | > 20000 | 80 | 5 | > 20000 | –
12 | CCOC(=O)N1CCC2(CC(N3CCC(N4CC(F)(F)C[C@@H]4C(=O)NOC)CC3)C2)C1 (single isomer, unassigned) [2-91 Isomer 2] | 501 | 40 | 79.4 | 67 | > 20000 | 12 | 10 | > 20000 | –
13 | CCOC(=O)N1CCC2(CC(N3CCC(N4CC(F)(F)C[C@@H]4C(=O)N(C)OC)CC3)C2)C1 (single isomer, unassigned) [2-92 Isomer 2] | 3160 | 50 | 31.6 | 82 | > 20000 | 2 | 5 | > 20000 | –
14 | CCOC(=O)N1CCC2(CC(N3CCC(N4CCC[C@]4(C)C(=O)OC)CC3)C2)C1 (single isomer, unassigned) [2-95 Isomer 2] | > 20000 | 19 | 63.1 | 49 | > 20000 | 16 | 9 | > 20000 | –
15 | CCOC(=O)N1CCC2(CC(N3CCC(N4CSC[C@@H]4C(=O)OC)CC3)C2)C1 (single isomer, unassigned) [2-97 Isomer 2] | > 20000 | 5 | 39.8 | 37 | > 20000 | 3 | 3 | > 20000 | –
16 | CCOC(=O)N1CCC2(CC(N3CCC(N4CCC(F)(F)C4)CC3)C2)C1 (single isomer, unassigned) [2-100 Isomer 2, ethyl 2-[4-(3,3-difluoropyrrolidin-1-yl)piperidin-1-yl]-6-azaspiro[3.4]octane-6-carboxylate] | > 20000 | 16 | 200 | 55 | > 20000 | 4 | 5 | > 20000 | –
17 | CCOC(=O)N1CCC2(CC(N3CCC(N4CCC[C@@H]4CF)CC3)C2)C1 (single isomer, unassigned) [2-102 Isomer 2] | 5010 | 23 | 316 | 45 | > 20000 | 1 | 11 | > 20000 | –
18 | CCOC(=O)N1CCC2(CC(N3CCC(N4CC(F)(F)C[C@@H]4C)CC3)C2)C1 (single isomer, unassigned) [2-106 Isomer 2] | 126 | 97 | 20 | 102 | > 20000 | 10 | 5 | > 20000 | –
19 | CCOC(=O)N1CCC2(CC(N3CCC(N4CC(F)(F)C[C@@H]4C(C)O)CC3)C2)C1 (single isomer, unassigned) [2-109 Isomer 2] | 398 | 50 | 15.8 | 91 | > 20000 | 9 | – | 10000 | 26
